Drawing on patent US20150274777A1, “KETOAMIDE IMMUNOPROTEASOME INHIBITORS” (HOFFMANN-LA ROCHE INC., priority 2012, published 2015), this text covers IC50 and EC50 for 13 compounds.

pEC50, pIC50: −log10 of the molar value. Where only a bound is given, the exact number is not on record here.

One experiment addresses T1, β5c (Homo sapiens, UniProt P20618+P28074).
T1 construct: protease activity associated with the proteasome complex in cultured cells; endogenous in cells; host or cells: Ramos cells
The experiment can be described thus: Cell-Based Proteasome Activity/Selectivity Assay (Ramos cells), substrate (WLA)2Rh110. The conditions noted are these: highest concentration tested 20 μM. From the text: (§1) Cell-Based Proteasome Activity/Selectivity Assay
(§2) The Cell-Based Proteasome subunit activity/selectivity assay was a panel of 5 fluorogenic assays that independently measured the activity of β5c or β5i (chymotrypsin-like activity), β2c/2i (trypsin-like), and β1c or β1i (caspase-like) protease activity associated with the proteasome complex in cultured cells. Specifically, the following substrates were used for respective subunit activities: β1i: (PAL)2Rh110, β1c: (LLE)2 Rh110, β2c/2i: (KQL)2Rh110, β5c: (WLA)2Rh110, β5i: (ANW)2Rh110. The following procedure was followed:
(§3) Cell preparation: Plated 25 μl of Ramos cells (2×10^6/ml in DPBS) into half area plate (PerkinElmer Cat 6005569) to final 5×10^4 cells/well. Added 0.5 μl of 100×4-fold serial diluted test compounds or DMSO to each well. Highest concentration of compound tested was 20 μM, thus compound serial dilution started from […]. Incubated for 30 minutes at 37° C. Then equilibrated at room temperature for 15 minutes. Added 25 μl of 2× reaction mix consisting of 0.025% digitonin, 20 μM of each substrates and 0.5M sucrose in DPBS. Shaked for one minute @ 700 rpm. Incubated for 120 min at room temperature. Then read the plates with an Envision multilabel plate reader (PerkinElmer) with 500 nm excitation/519 nm emission.

The test system of experiment [1] is IP10 level in PBMCs stimulated with CpG Type A. The experiment can be described thus: PBMC IP-10 Assay. In kind it is cell-based. The note with it: CpG Type A 2.5 μM. The method, then: PBMCs were isolated from whole blood as follows: Blood was collected in a sterile environment in heparinized tubes. Blood was diluted with an equal volume PBS/2% FCS and 30 ml of this mixture was added to ACCUSPIN tubes containing 15 ml Histopaque-1077 already centrifuged at 800 g for 30 seconds and warmed up at room temperature. The tubes were then centrifuged at 800 g for 20 minutes at room temperature with no brake. The mononuclear band, just above the polyethylene frit, was removed by Pasteur pipet. These mononuclear cells were washed three times with sterile PBS, counted, and resuspended in RPMI 1640 supplemented with 10% heat inactivated fetal calf serum, 10 mM HEPES, 1 mM sodium pyruvate, penicillin (50 U/ml), streptomycin (50 μg/ml) and glutamine (2 mM) to approximately 1.5×10^6/ml. Approximately 2×10^5 cells/well were plated in 96 well tissue culture plates (BD Falcon 353072), and preincubated 60 mi/37° C. with a titration of compounds, in a final concentration of 1% DMSO. Cells were then stimulated with CpG Type A (Invivogen, Cat #tlrl-2216; ODN 2216) at a final concentration of 2.5 μM. Cells were incubated overnight, and supernatants were removed. PBMC viability of cells remaining in the well was measured with ATPlite luminescence assay (Perkin-Elmer) per the manufacturer's instructions. Luminescence was measured on the Perkin-Elmer Envision, using the luminescence filter. IP10 level was measured with CXCL10/IP10 AlphaLISA kit (Perkin-Elmer) per the manufacturer's instructions, except halving all volumes. Fluorescence was measured on the Envision Multilabel plate reader, using the AlphaScreen standard settings.

A further experiment has as its target T2, β1i (Homo sapiens, UniProt P28065+P40306).
T2 construct: protease activity associated with the proteasome complex in cultured cells; endogenous in cells; host or cells: Ramos cells
Put plainly: Cell-Based Proteasome Activity/Selectivity Assay (Ramos cells), substrate (PAL)2Rh110. The note with it: highest concentration tested 20 μM.
Excerpt: as §1, §2, §3

The subject of the next experiment is β2c/2i. The experiment can be described thus: Cell-Based Proteasome Activity/Selectivity Assay (Ramos cells), substrate (KQL)2Rh110. The conditions noted are these: highest concentration tested 20 μM.
Excerpt: as §1, §2, §3

The next experiment has as its target T3, β5i (Homo sapiens, UniProt P20618+P28062).
T3 construct: protease activity associated with the proteasome complex in cultured cells; endogenous in cells; host or cells: Ramos cells
Put plainly: Cell-Based Proteasome Activity/Selectivity Assay (Ramos cells), substrate (ANW)2Rh110. The conditions noted are these: highest concentration tested 20 μM, read-out: Ic50 ramos:ac-(anw)2-r110.
Excerpt: as §1, §2, §3

The target of another experiment is T4, β1c (Homo sapiens, UniProt P28072+Q99436).
T4 construct: protease activity associated with the proteasome complex in cultured cells; endogenous in cells; host or cells: Ramos cells
The experiment can be described thus: Cell-Based Proteasome Activity/Selectivity Assay (Ramos cells), substrate (LLE)2 Rh110. The note with it: highest concentration tested 20 μM.
Excerpt: as §1, §2, §3

A word on the pIC50: it is the IC50 on a negative log10 scale, so that one unit is a factor of ten. Broadly, the pEC50 is the negative decadic logarithm of the EC50, by convention in mol/L. For the compound `CCCC[C@H](NC(=O)[C@H](Cc1ccc(OC)cc1)NC(=O)[C@H](C)NC(=O)CN1CCOCC1)C(=O)C(=O)NCc1ccccc1` [Example 3, (S)-3-{(S)-3-(4-Methoxy-phenyl)-2-[(S)-2-(2-morpholin-4-yl-acetylamino)-propionylamino]-propionylamino}-2-oxo-heptanoic acid benzylamide], the negative-log IC50 (pIC50) against β5c was 5.49; against β1i it was 6.25; with β2c/2i, less than 4.70; on β5i it was 6.40; on β1c, less than 4.70. Further, in experiment [1], the pEC50 was 5.10.

As to `C[C@H](NC(=O)OCc1ccccc1)C(=O)N[C@@H](Cc1ccc(Cl)cc1)C(=O)N[C@@H](Cc1ccccc1)C(=O)C(=O)NCc1ccccc1` [Example 51, {(S)-1-[(S)-1-((S)-1-Benzyl-2-benzylcarbamoyl-2-oxo-ethylcarbamoyl)-2-(4-chloro-phenyl)-ethylcarbamoyl]-ethyl}-carbamic acid benzyl ester], the negative-log IC50 (pIC50) was 5.29 against β5c; 5.01 against β1i; less than 4.70 in the experiment with β2c/2i; 7.68 at β5i; less than 4.70 at β1c. Besides, the pEC50 in experiment [1] was 5.59.

With `COCCNC(=O)C(=O)[C@H](Cc1ccccc1)NC(=O)[C@H](Cc1c[nH]c2ccccc12)NC(=O)[C@H](C)NC(=O)OCc1ccccc1` [Example 33, {(S)-1-[(S)-1-[(S)-1-Benzyl-2-(2-methoxy-ethylcarbamoyl)-2-oxo-ethylcarbamoyl]-2-(1H-indol-3-yl)-ethylcarbamoyl]-ethyl}-carbamic acid benzyl ester], the negative logarithm of the IC50 (pIC50) at β5c is 6.22; at β1i it was 6.69; in the experiment with β2c/2i, less than 4.70; at β5i it was 7.85; at β1c, 4.76. In experiment [1], the pEC50 is 5.86.

Consider `CCCC[C@H](NC(=O)[C@H](Cc1ccc(OC)cc1)NC(=O)[C@H](C)NC(=O)CN1CCOCC1)C(=O)C(=O)NC` [Example 14, (S)-3-{(S)-3-(4-Methoxy-phenyl)-2-[(S)-2-(2-morpholin-4-yl-acetylamino)-propionylamino]-propionylamino}-2-oxo-heptanoic acid methylamide], for which the pIC50 was 4.78 on β5c; 6.37 on β1i; less than 4.70 with β2c/2i; 6.16 on β5i; less than 4.70 at β1c. The compound also had a pEC50 in experiment [1] of 5.29.

On to `CCCC[C@H](NC(=O)[C@H](Cc1c[nH]c2ccccc12)NC(=O)[C@H](C)NC(=O)C1Cc2ccccc2C1)C(=O)C(=O)NCc1ccccc1` [Example 11, Indan-2-carboxylic acid {(S)-1-[(S)-1-((S)-1-benzylaminooxalyl-pentylcarbamoyl)-2-(1H-indol-3-yl)-ethylcarbamoyl]-ethyl}-amide], for which the pIC50 against β5c was 6.33; in the experiment on β2c/2i it was 5.10; on β5i, 7.85; on β1c, 5.53. This compound also had a negative logarithm of the EC50 (pEC50) in experiment [1] of 5.91.

Turning to `COc1ccc(C[C@H](NC(=O)[C@H](C)NC(=O)CN2CCOCC2)C(=O)N[C@@H](Cc2ccccc2)C(=O)C(=O)NCc2ccccc2)cc1` [Example 46, (S)—N-Benzyl-3-{(S)-3-(4-methoxy-phenyl)-2-[(S)-2-(2-morpholin-4-yl-acetylamino)-propionylamino]-propionylamino}-2-oxo-4-phenyl-butyramide], the negative-log IC50 (pIC50) at β5c was 5.36; at β1i, 5.66; in the experiment on β2c/2i, less than 4.70; on β5i, 6.92; at β1c, less than 4.70. In addition, in experiment [1], the negative-log EC50 (pEC50) is 5.24.

Take `CCCC[C@H](NC(=O)[C@H](CC(C)C)NC(=O)[C@@H](NC(=O)CN1CCOCC1)C(C)(C)C)C(=O)C(=O)NCc1ccccc1` [Example 2, (S)-3-{(S)-2-[(S)-3,3-Dimethyl-2-(2-morpholin-4-yl-acetylamino)-butyrylamino]-4-methyl-pentanoylamino}-2-oxo-heptanoic acid benzylamide]: the pIC50 at β5c is 5.61; at β1i, 6.18; in the experiment on β2c/2i, less than 4.70; on β5i it was 5.68; on β1c it was 5.06. Further, in experiment [1], the negative-log EC50 (pEC50) is 4.92.

Turning to `COc1ccc(C[C@H](NC(=O)[C@@H](NC(=O)C2Cc3ccccc3C2)C2CC2)C(=O)N[C@@H](Cc2ccccc2)C(=O)C(=O)NCc2ccccc2)cc1` [Example 26, Indan-2-carboxylic acid {(S)-[(S)-1-((S)-1-benzyl-2-benzylcarbamoyl-2-oxo-ethylcarbamoyl)-2-(4-methoxy-phenyl)-ethylcarbamoyl]-cyclopropyl-methyl}-amide], the pIC50 was 7.82 against β5c; 6.74 at β1i; 6.42 with β2c/2i; 8.40 on β5i; 5.62 on β1c. Moreover, in experiment [1], the negative logarithm of the EC50 (pEC50) is 6.69.

Regarding `CCCC[C@H](NC(=O)[C@H](CCS(C)(=O)=O)NC(=O)[C@H](C)NC(=O)C1=C(C)c2ccccc2C1)C(=O)C(=O)NCc1ccccc1` [Example 15, 3-Methyl-1H-indene-2-carboxylic acid {(S)-1-[(S)-1-((S)-1-benzylaminooxalyl-pentylcarbamoyl)-3-methanesulfonyl-propylcarbamoyl]-ethyl}-amide], the pIC50 was 5.45 at β5c; 6.68 against β1i; less than 4.70 with β2c/2i; 7.00 on β5i; 5.07 against β1c. The same compound had a negative-log EC50 (pEC50) in experiment [1] of 5.72.

In the case of `Cc1cc(C(=O)N[C@@H](C)C(=O)N[C@@H](Cc2c[nH]c3ccccc23)C(=O)N[C@@H](Cc2ccccc2)C(=O)C(=O)NCc2ccccc2)no1` [Example 47, 5-Methyl-isoxazole-3-carboxylic acid {(S)-1-[(S)-1-((S)-1-benzyl-2-benzylcarbamoyl-2-oxo-ethylcarbamoyl)-2-(1H-indol-3-yl)-ethylcarbamoyl]-ethyl}-amide], the negative logarithm of the IC50 (pIC50) against β5c was 5.86; on β1i, 6.15; in the experiment with β2c/2i it was less than 4.70; on β5i, 7.47; on β1c it was 5.20. In addition, the negative logarithm of the EC50 (pEC50) in experiment [1] was 5.64.

Consider `CCCC[C@H](NC(=O)[C@H](Cc1c[nH]c2ccccc12)NC(=O)[C@H](C)NC(=O)c1ccnn1C)C(=O)C(=O)NCc1ccccc1` [Example 13, 2-Methyl-2H-pyrazole-3-carboxylic acid {(S)-1-[(S)-1-((S)-1-benzylaminooxalyl-pentylcarbamoyl)-2-(1H-indol-3-yl)-ethylcarbamoyl]-ethyl}-amide], for which the pIC50 at β5c was 5.53; in the experiment with β2c/2i, less than 4.70; at β5i, 6.39; against β1c, 5.02. Also, the pEC50 in experiment [1] was 5.40.

On to `CCCC[C@H](NC(=O)[C@H](Cc1c[nH]c2ccccc12)NC(=O)[C@H](C)NC(=O)CN1CCOCC1)C(=O)C(=O)NCc1ccccc1` [Example 10, (S)-3-{(S)-3-(1H-Indol-3-yl)-2-[(S)-2-(2-morpholin-4-yl-acetylamino)-propionylamino]-propionylamino}-2-oxo-heptanoic acid benzylamide], for which the pIC50 at β5c was 5.72; on β1i, 6.56; in the experiment with β2c/2i, less than 4.70; on β5i it was 6.15; at β1c it was less than 4.70.

`CCCC[C@H](NC(=O)[C@H](Cc1c[nH]c2ccccc12)NC(=O)[C@H](C)NC(=O)c1cccc(Cl)c1Cl)C(=O)C(=O)NCc1ccccc1` [Example 12, N-{(S)-1-[(S)-1-((S)-1-Benzylaminooxalyl-pentylcarbamoyl)-2-(1H-indol-3-yl)-ethylcarbamoyl]-ethyl}-2,3-dichloro-benzamide]: the pIC50 on β5c was 6.42; with β2c/2i, less than 4.70; at β5i, 7.44; on β1c, 5.26. The same compound gave a pEC50 in experiment [1] of 5.58.
